Measured values: patent publication EP0907658B1 (PRINCE OF WALES MEDICAL RESEARCH INSTITUTE LIMITED, priority 1996, dated 2004)
Ends that are not written are not given here.

Experiments:
[1] = tested on: neuropeptide Y Y1 receptor; settings: studies in vivo; cited from earlier work
[2] = tested on: neuropeptide Y Y2 (prejunctional); settings: studies in vivo; cited from earlier work
Y2-like receptors = assay: Inhibition of the increase in pulse interval evoked by vagus nerve stimulation in anaesthetised rats (prejunctional activity); type: in vivo; settings: for EC50 ΔP1%: change in pulse interval, anaesthetised rats, intravenous peptide; for in vivo activity at Y2 receptors (potency as inhibitor of the effect of vagal stimulation on heart rate): compared with Ac[L28,L31]NPY24-36
Experimental: (§1) Experiments were carried out on adult rats (Wistar) of both sexes (250-350g), anaesthetised with sodium pentobarbitone (Nembutal, Boehringer-Ingleheim; 60 mg/kg, i.p.). The trachea was cannulated and the animal artificially ventilated. The femoral vein was cannulated for administration of peptides and further doses of anaesthetic. The left femoral artery was cannulated to record arterial pressure. Both vagus nerves were cut. […] The frequency was chosen to increase pulse interval by approximately 100 ms, a submaximal effect on this variable. The electrocardiogram was measured using needle electrodes and monitored on one channel of an osciloscope. Pulse interval (the period between successive beats of the heart) was recorded beat-by-beat by triggering from ECG. Pulse interval and arterial pressure were recorded on the pen recorder.
Dose-response curves were constructed from group data for all rats. Because of the long time-course of action of the peptides tested, not all peptides were given to each rat. Usually however, each rat received neuropeptide Y and two other peptides.
(§2) As an indication of prejunctional activity two parameters were measured; the maximum percent inhibition of the increase in pulse interval evoked by stimulation of the vagus nerve following injection of peptide and the time to half recovery of this effect (T50). For pressor action, an indicator of postjunctional activity, two parameters were also measured; the peak pressor response following injection of peptide and the duration of the increase in blood pressure. These indices give a reliable measure of the actions of a peptide at pre-and postjunctional sites, and have been used previously in this laboratory for this purpose; Potter et al., 1989; Potter et al., 1991). Results were analysed using a one-way ANOVA.

[3] = tested on: transmitter release from renal nerves; assay: Kidney blood flow: increase of renal vascular resistance elicited by renal nerve stimulation; type: in vivo, dogs; settings: 40 nmol dose; Figure 1
Experimental: Experiments were carried out in six, adult, mongrel dogs of both sexes weighing between 18 and 26 kg. The dogs were anaesthetised with a bolus injection of sodium pentobarbitone (36 mg/kg intravenous; Nembutal, Boehringer Ingelheim) and then maintained on an infusion (2-3 mg/kg/hr). The animal was artificially ventilated, maintained at constant temperature and blood pressure and heart rate were monitored continuously.
The left kidney was exposed retroperitoneally and renal arterial blood flow was monitored continuously (Pernow & Lundberg, 1989a), using a transonic flow probe (Transonic System Inc., N.Y.). Postganglionic nerves to the kidney were isolated, cut and placed over bipolar, platinum electrodes for stimulation (1-10 Hz, 5-10 V, 1-5 msec).
The renal nerve was stimulated over a range of frequencies (1-10 Hz) for 30 secs and a frequency-response curve constructed. The responses were measured at the peak change in flow. […] Responses were reported as change in vascular resistance.

human Y2 receptor = assay: [125I]NPY receptor binding assay on SMS-MSN cells; settings: for IC50: SMS-MSN cells, 30 pM [125I]NPY
Experimental: SK-N-MC cells expressing the human Y1 receptor and SMS-MSN cells expressing the human Y2 receptor were obtained from the ATCC. They were cultured in 1:1 DMEM:Ham's F12 medium (ICN) containing 10% fetal calf serum, 0.1% non-essential amino acids, 0.2 mM glutamine, and 0.056% sodium bicarbonate. Confluent cells were harvested in scraping and pellets were stored at -80°C. On the day of use cells were thawed, washed once in binding buffer salts, passed several times through a 22 ga. needle, and the protein content was assayed using bicinchoninic acid (BCA kit, Pierce).
Just before use, plates were filtered and washed twice with 50 mM Tris-HCI pH 7.4 / 0.1% BSA. […] Binding was terminated by filtration. […] Specific binding was analysed by nonlinear regression using a single-site fitting function (Graphpad Prism). Nonspecific binding was defined by binding in the presence of 1 µM competitor.

Y1 receptors = assay: Pressor response (blood pressure increase) after peptide injection in anaesthetised rats (postjunctional activity); type: in vivo
Experimental: as §1, with “The” for “The frequency was chosen to increase pulse interval by approximately 100 ms, a submaximal effect on this variable. The”
Dose-response curves were constructed from group data for all rats. Because of the long time-course of action of the peptides tested, not all peptides were given to each rat.
as §2, with “These indices give a reliable measure of the actions of a peptide at pre-and postjunctional sites, and have been used previously in this laboratory for this purpose; Potter et al., 1989; Potter et al., 1991).” left out

[4] = tested on: neuropeptide Y Y2 receptor subtype; settings: SMS-KAN cells; cited from earlier work
[5] = tested on: human neuropeptide Y Y1 receptor; settings: Y1 receptor expressed in fibroblast cells; cited from earlier work
[6] = tested on: neuropeptide Y Y1 receptor type; settings: SK-N-MC cells; cited from earlier work

(Leu^17, Glu^19, Ala^21, Ala^22, Glu^23, Leu^28, Leu^31) neuropeptide Y-(13-36) [ANA neuropeptide Y-(13-36)]
pressor activity [1]: retained significant pressor activity
prejunctional activity [2]: prejunctional activity equivalent to the whole neuropeptide Y molecule

Ac-ARAALNAATRQRY-NH2 [Ac[A24,26,27,30,31,L28]NPY24-36]
EC50 ΔP1% (Y2-like receptors): 0.56 nmol
in vivo activity at Y2 receptors (potency as inhibitor of the effect of vagal stimulation on heart rate) (Y2-like receptors): enhanced in vivo activity at Y2 receptors

Ac-ARHALNLLTRQRY-NH2 [Ac[A24,A27,L28,L31]NPY24-36, Ac[Ala24, Ala27, Leu28, Leu31]NPY(24-36)]
EC50 ΔP1% (Y2-like receptors): 0.89 nmol
in vivo activity at Y2 receptors (potency as inhibitor of the effect of vagal stimulation on heart rate) (Y2-like receptors): enhanced in vivo activity at Y2 receptors
inhibition of the increase of renal vascular resistance elicited by renal nerve stimulation [3]: almost completely inhibited the effect of nerve stimulation
affinity for NPY Y2 receptors (human Y2 receptor; in words): high affinity for NPY Y2 receptors
direct effect on the circulation (Y1 receptors; 40 nmol dose, Table 1): exerted no direct effect on the circulation

Ac-ARHYLNLLTRQRY-NH2 [Ac[A24,L28,L31]NPY24-36]
EC50 ΔP1% (Y2-like receptors): 0.46 nmol

Ac-LAHYLNLLTRQRY-NH2 [Ac[A25,L28,L31]NPY24-36]
EC50 ΔP1% (Y2-like receptors): 1.58 nmol
IC50 (human Y2 receptor): 2 nM

Ac-LAHYRNLLTRQRY-NH2 [Ac[A25,R28,L31]NPY24-36]
EC50 ΔP1% (Y2-like receptors): 1.95 nmol

Ac-LRAYLNLLTRQRY-NH2 [Ac[A26,L28,L31]NPY24-36]
EC50 ΔP1% (Y2-like receptors): 1.26 nmol

Ac-LRHALNLLTRQRY-NH2 [Ac[A27,L28,L31]NPY24-36]
EC50 ΔP1% (Y2-like receptors): 0.52 nmol

Ac-LRHYANLLTRQRY-NH2 [Ac[A28,L31]NPY24-36]
EC50 ΔP1% (Y2-like receptors): 2.75 nmol

Ac-LRHYLALLTRQRY-NH2 [Ac[L28,A29,L31]NPY24-36]
EC50 ΔP1% (Y2-like receptors): 1.48 nmol

Ac-LRHYLNALTRQRY-NH2 [Ac[L28,A30,L31]NPY24-36]
EC50 ΔP1% (Y2-like receptors): 0.39 nmol

Ac-LRHYLNLATRQRY-NH2 [Ac[L28,A31]NPY24-36]
EC50 ΔP1% (Y2-like receptors): 0.78 nmol

Ac-LRHYLNLLARQRY-NH2 [Ac[L28,L31,A32]NPY24-36]
EC50 ΔP1% (Y2-like receptors): 6.46 nmol

Ac-LRHYLNLLTRQRY-NH2 [Ac[L28,L31]NPY24-36]
affinity for the neuropeptide Y Y2 receptor subtype [4]: significant affinity
EC50 ΔP1% (Y2-like receptors): 3.16 nmol
increase in cytosolic calcium [5]: did hot stimulate
IC50 (human Y2 receptor): 3.9 nM
affinity for the neuropeptide Y Y1 receptor type [6]: no affinity

AcNPY 24-36
Increase in BP (rel to NPY) (Y1 receptors; anaesthetised rats, †: No response to 10 nmole dose): Of

Ac[A26,A27,L28,L31]NPY24-36 (Ac-LRAALNLLTRQRY; ends and bridges not checked; UniProt P01303 52-64, looked up, variant H26A Y27A I28L I31L) [Ac[A26,27,L28,31]NPY24-36]
in vivo activity at Y2 receptors (potency as inhibitor of the effect of vagal stimulation on heart rate) (Y2-like receptors): enhanced in vivo activity at Y2 receptors

Ac[L28,I30]NPY24-36 (Ac-LRHYLNIITRQRY; ends and bridges not checked; UniProt P01303 52-64, looked up, variant I28L L30I)
EC50 ΔP1% (Y2-like receptors): 1.26 nmol

Neuropeptide Y [NPY]
change of blood pressure (Y1 receptors; in vivo in rats, at the doses tested): raised blood pressure significantly in a dose-dependent manner
